US5770623A, “Argine antagonists for inhibition of systemic hypotension associated with nitric oxide production or endothelial derived relaxing factor” (Board of Regents, The University of Texas System, priority 1995, dated 1998)
Where two headings read alike, the source gives them in different places.

Key:
[1] = test system: endotoxemic dogs; assay: Endotoxin-induced hypotension in dogs (Example 5); format: in vivo, dog
Procedure: Administration of ET to dogs was clearly more toxic and less predictable than TNF administration. […] Within 1.5 minutes the blood pressure increased by 33±2.5 mmHg.

[2] = test system: murine endothelial cells exposed to Gamma-Interferon and TNF (nitric oxide production); assay: Inhibition of nitrite production by MBEC exposed to IFN (100 U/ml) and TNF (500 U/ml); format: cell-based; settings: for IC50: Mus musculus, Endothelial cell
Procedure: Endothelial cells--MBEC's were isolated from murine brain microvessels and cultured on gelatin-coated tissue culture dishes in DME/F12 media supplemented with 2% PPPHS, 5% FBS (Hyolone), 50 μg/ml ECGF (Biomed Tech), and 10 U/ml heparin (Sigma) as previously described (Belloni et al. 1989). The endothelial derivation of MBEC's was determined by the presence of a non-thrombogenic surface to platelets and immunofluorescent staining for Factor VIII related antigen. MBEC's were used between passage 6-9 for all experiments.
Nitrite Assay--MBE cells were cultured on gelatin-coated well plates (Corning) in 100 μl of culture medium and treated with cytokines at 3 days post-confluence. After 48 hours, nitrite production was determined by a colorimetric assay. […] All treatments were performed in triplicate and data presented as the mean value±standard deviation. […]
production by murine endothelial cells exposed to GammaInterferon (100
U/ml) and TNF (500 U/ml) in vitro.

[3] = test system: human internal mammary artery; assay: ACh-induced relaxation of human internal mammary artery; settings: for effect on ACh-induced vasorelaxation: NE-preconstricted, FIG. 11
Description: FIG. 11 contains representative physiograph tracings which depict ACh-induced relaxation of NE-preconstricted rings prepared from rabbit aorta (upper panel) and human internal mammary artery (lower panel).

[4] = test system: nitroglycerin-treated dogs; assay: Nitroglycerin-induced hypotension in dogs (Example 4); format: in vivo, dog; settings: for Cardiac Output / Heart Rate / Systemic Arterial Pressure / Systemic Vascular Resistance: Table 1, Study 2: Nitroglycerin-treated (n = 3)
Procedure: Animals: Studies were carried out on 12 conditioned mongrel dogs (9 males and 3 females) weighing 22-32 kg (avg=25.3 kg). Animal care was in accordance with the recommendations of the American Association for Accreditation of Laboratory Animal Care, and met all standards prescribed by the Guide for the Care and Use of Laboratory Animals (Guide for the Care and Use of Laboratory Animals (1978) Dept. of Health, Education and Welfare, Washington, D.C. (Publ. No. 78-23). Animal protocols were approved by The University of Texas Animal Welfare Committee. The dogs were fasted overnight prior to the day of experimentation. They were anesthetized with sodium pentobarbital (25 mg/kg I.v.). Dogs were then endotracheally intubated and ventilated with a piston-driven respirator (Harvard instruments) using room air at a tidal volume of 20 ml/kg and at a rate of 10 to 12 breaths per minute, adjusted to achieve a normal arterial pH and pCO2 (Instrumentation Laboratories 1L13012 pH/Blood Gas Analyzer). Catheters were placed percutaneously into the femoral and pulmonary arteries; In the latter, a flow-directed thermal-dilation catheter was used (Abbott Critical Care Systems).
Physiologic measurements: Mean SAP and heart rate were continuously monitored (Parametron 7048 Monitoring System, Roche) and stored on a magnetic disk using an analog-to-digital converter (Scientific Solutions, Inc.). Cardiac output (CO) was determined as the mean of six measurements by thermal-dilution. Systemic vascular resistance was calculated as (SAP X80)/CO and expressed as […].
Protocol: After the blood pressure and heart rate stabilized, endotoxin (40 ug/kg, in 10 ml of phosphate-buffered saline (PBS), pH 7.4) was infused i.v. over 2 minutes. This dose of endotoxin typically induces severe and often lethal cardiovascular collapse in the dog. Blood pressure was monitored, and when either SAP fell below 60 mmHg or a stable nadir in systemic arterial pressure (SAP) was maintained for 10 minutes, L-NMA was administered (20 mg/kg in 5 ml of PBS i.v. over 1 min.). In most experiments, L-arginine (400 mg/kg in 20 mi PBS) was administered ten minutes later by i.v. infusion over 2 minutes. In control experiments, dogs without prior exposure to endotoxin received L-NMA alone. To simulate the hypotension observed in dogs receiving endotoxin, one group of dogs received a continuous i.v. infusion of nitroglycerin (2 mg/ml) at a rate adjusted to maintain the SAP at 60-70 mm Hg. Nitroglycerin-treated dogs then received L-NMA (20 mg/kg) and 20 minutes later L-arginine was administered […].
In an additional series of experiments, blood pressure was reduced to 65 mm Hg by continuous i.v. infusion of nitroglycerin, a hypotensive agent that forms NO by an L-arginine and NO synthetase-independent mechanism.

[5] = test system: nitroglycerin infused dogs; assay: Nitroglycerin-induced hypotension in dogs (Example 2); format: in vivo, dog
Procedure: Four conditioned mongrel dogs, 2 males and 2 females, weighing 28 to 30 kgs, were studied. Care of the animals were in accordance with the recommendation of the American Association for Accreditation of Laboratory Animals [DHEW(DHHS) publication no. (NIH) 78-23, revised, 1978]. On the day of the experiment, the dogs were fasted overnight. They were anesthetized with phenobarbital (10 mg/kg). They were then intubated orally with a #10 fr. endotracheal tube and ventilated with a Harvard pump ventilator at a rate of 12 breaths per minute and a tidal volume of 15 ml/kg. An arterial line was percutaneously placed in the femoral artery on the day of the experiment.
Mean (electronic) and phasic systemic arterial pressures (SAP) were continuously recorded on a Hewlett-Packard recording system (model 7758B) using strain gauge manometers (Hewlett-Packard model 1290A) which were connected to the arterial line. Heart rate (HR) was determined from an EKG tracing and continuously recorded on the Hewlett-Packard recording system. Oxyhemoglobin saturation (SaO2) was obtained using a pulse oximeter (BIOX 111, Boulder, Colo.). continuous time-series records of SAP, HR, and SaO2 were obtained using a Lab Master analog-to-digital convertor (16 channel, 12 bit, 30 kHz; Scientific Solutions, Inc.) sampling at 55 Hz and storing the 6 sec averages on a magnetic disk.
This was followed by a compensatory decrease in the HR with a return of the BP to baseline. The NMMA-induced bradycardia lasted 31 minutes. This response was not observed in animals which had been previously treated with TNF. In a subsequent experiment (FIG. 7a) the hypotensive response to TNF was especially severe, with a decrease in BP from 125 mm to 36 mmHg. […] This was associated with a decrease in the HR from 101 to 92 beats/minute. […] In a second control study nitroglycerin was infused at a rate of 28 μg/kg/minute, IV, to lower the blood pressure to the same level as that observed with tumor necrosis factor (FIG. 7c).

CNC(=N)NCCC[C@H](N)C(=O)O [NMMA, N^G -methyl-L-arginine]
blood pressure with readministration of NMMA ([1]; FIG. 24): maintained | increase in blood pressure by NMMA ([1]; NMMA 5 mg/kg after ET 1 μg/kg): 33±2.5 mmHg | time to blood pressure increase ([1]; NMMA 5 mg/kg after ET 1 μg/kg): ≤ 1.5 min | increase in blood pressure by NMMA ([1]; lethal shock, 100 μg/ml endotoxin, NMMA 20 mg/kg): 65 mm | concentration giving maximal inhibition of nitrite production ([2]; MBEC exposed to TNF and IFN): 1 mM | effect of NMMA on nitrite production ([2]; MBEC exposed to TNF and IFN): inhibited | IC50 ([2]; 48 h, read-out: ED50% (effective dose that inhibited 50% of the nitrite production), murine endothelial cells, Gamma-Interferon (100 U/ml) and TNF (500 U/ml), in vitro): 337 µM | IC50 ([2]; read-out: E.D. 50% for inhibition of nitrite production, MBEC exposed to TNF and IFN): 330 µM | effect on ACh-induced vasorelaxation [3]: attenuate ACh-induced vasorelaxation | inhibition of EDRF/NO in vascular preparation ([3]; human): arginine reversible inhibitor of EDRF/NO | HR, CO or SVR after L-NMA ([4]; L-NMA 20 mg/kg): without significant alteration in HR, CO, or SVR | Cardiac Output [4]: 3.85 ± 0.8 L/min | Heart Rate [4]: 191.7 ± 35.0 beats/min | Systemic Arterial Pressure [4]: 81.8 ± 3.5 mmHg | Systemic Vascular Resistance [4]: 1851 ± 399 dynes-sec/cm^5 | increase in blood pressure (SAP) by L-NMA ([4]; nitroglycerin infusion, L-NMA 20 mg/kg, n=3): 17.1±5.0 mmHg | blood pressure increase by NMMA ([5]; nitroglycerin 28 μg/kg/minute IV): 14 mm | antagonism of nitroglycerin hypotension ([5]; similar level of hypotension): not antagonized

N=C(N)NCCC[C@H](N)C(=O)O [L-arginine, reference compound]
effect of L-arginine after NMMA ([1]; L-arginine 100 mg/kg): fall precipitously below the pre-NMMA level | reversal of NMMA inhibition of nitrite production ([2]; 8 mM L-arginine vs 1 mM NMMA): completely reversing the effects of 1 mM NMMA | nitrite concentration upon adding L-arginine back to arginine-free medium ([2]; MBEC exposed to TNF and IFN): increased in a dose dependent manner | effect on ACh-induced vasorelaxation [3]: restores relaxation | Cardiac Output [4]: 5.15 ± 1.08 L/min | Heart Rate [4]: 148.7 ± 19.9 beats/min | Systemic Arterial Pressure [4]: 56.9 ± 13 mmHg | Systemic Vascular Resistance [4]: 1088.2 ± 491 dynes-sec/cm^5 | effect of L-arginine after NMMA ([5]; nitroglycerin infused dogs): reversed this modest effect
